Where a name gives a salt, the structure may show the parent alone.
What was measured:
[1] = test system: osteoblast (MC3T3-E1) cells; design: method as in Antoci et al. [39]; details: ref Antoci et al. [39]; cited from earlier work
[2] = test system: Staphylococcus aureus Xen 36; assay: In-vivo infection prevention study: X-ray and micro-CT signs of tibial osteomyelitis
Protocol: Bioluminescent strain Staphylococcus aureus Xen 36 (Caliper LifeSciences, Alameda, CA) was used to develop bone infection. The strain was stored in a glycerol (20% v/v) and Brain Heart Infusion (BHI) suspension at -80°C until required. Bacteria were subcultured onto an LB plate (Luria-Bertani, Miller broth mixed with 1.2% (w/v) Technical Agar (Difco, Sparks, MD.)), at 37°C overnight. Five colonies were then transferred to 3 mL LB broth and grown in shaker incubator (200 rpm), at 37°C for 2.5 h. Two milliliters of the bacterial suspension was transferred to 100 mL LB broth and grown for a further 4 h, until the cells reached exponential growth. Bacterial suspension was transferred into 50 mL centrifuge tubes and cells centrifuged at ~3,000 rpm for 30 min. Supernatants were discarded and pellets were re-suspended in 15 mL Phosphate Buffered Saline (PBS). Cells were then mixed by vortexing and the centrifugation process was repeated. This cell washing process was repeated three times. The final washed and pelleted cells were re-suspended in a total of 10 mL PBS, and mixed by vortexing. The cell suspension was then ten-fold serially diluted. The concentration of the cell suspension was then determined using the spread plate technique and spreading 100 μL of the various dilutions onto LB plates, in duplicate. Plates were incubated at 37°C overnight before counting colony forming units (CFU). […]

[3] = patient with normal renal function, intravenous infusion; ref [11], [21]; cited from earlier work
[4] = In-vivo pharmacokinetic study: vancomycin in tibia, muscle and plasma after intramedullary delivery (HPLC); details: rat; for Mean vancomycin concentration in gastrocnemius muscle (ug drug/g tissue, AVE) / Mean vancomycin concentration in tibia (ug drug/g tissue, AVE): single 25 mg/Kg intramedullary dose to tibia, mean of n = 4; for Vancomycin in muscle, ug drug/g tissue / Vancomycin in plasma: single rat
[5] = single 25 mg/Kg intramedullary dose, 4 h, HPLC, sample 1-1
[6] = single 25 mg/Kg intramedullary dose, 4 h, HPLC, sample 1-3
[7] = single 25 mg/Kg intramedullary dose, 4 h, HPLC, sample 1-4
[8] = single 25 mg/Kg intramedullary dose, 6 h, HPLC, sample 2-1
[9] = single 25 mg/Kg intramedullary dose, 6 h, HPLC, sample 2-2
[10] = single 25 mg/Kg intramedullary dose, 6 h, HPLC, sample 2-3
[11] = single 25 mg/Kg intramedullary dose, 6 h, HPLC, sample 2-4
[12] = single 25 mg/Kg intramedullary dose, 12 h, HPLC, sample 3-1
[13] = single 25 mg/Kg intramedullary dose, 12 h, HPLC, sample 3-2
[14] = single 25 mg/Kg intramedullary dose, 12 h, HPLC, sample 3-3
[15] = single 25 mg/Kg intramedullary dose, 12 h, HPLC, sample 3-4
[16] = single 25 mg/Kg intramedullary dose, 24 h, HPLC, sample 4-1
[17] = single 25 mg/Kg intramedullary dose, 24 h, HPLC, sample 4-2
[18] = single 25 mg/Kg intramedullary dose, 24 h, HPLC, sample 4-3
[19] = single 25 mg/Kg intramedullary dose, 24 h, HPLC, sample 4-4
[20] = single 25 mg/Kg intramedullary dose, 48 h, HPLC, sample 5-1
[21] = single 25 mg/Kg intramedullary dose, 48 h, HPLC, sample 5-2
[22] = single 25 mg/Kg intramedullary dose, 48 h, HPLC, sample 5-4
[23] = single 25 mg/Kg intramedullary dose, 72 h, HPLC, sample 6-2
[24] = single 25 mg/Kg intramedullary dose, 72 h, HPLC, sample 6-3
[25] = single 25 mg/Kg intramedullary dose, 72 h, HPLC, sample 6-4
[26] = single 25 mg/Kg intramedullary dose, 96 h, HPLC, sample 7-1
[27] = single 25 mg/Kg intramedullary dose, 96 h, HPLC, sample 7-2
[28] = single 25 mg/Kg intramedullary dose, 96 h, HPLC, sample 7-3
[29] = single 25 mg/Kg intramedullary dose, 96 h, HPLC, sample 7-4
[30] = single 25 mg/Kg intramedullary dose, HPLC

CN[C@H](CC(C)C)C(=O)N[C@H]1C(=O)N[C@@H](CC(N)=O)C(=O)N[C@H]2C(=O)N[C@H]3C(=O)N[C@H](C(=O)N[C@H](C(=O)O)c4cc(O)cc(O)c4-c4cc3ccc4O)[C@H](O)c3ccc(c(Cl)c3)Oc3cc2cc(c3O[C@@H]2O[C@H](CO)[C@@H](O)[C@H](O)[C@H]2O[C@H]2C[C@](C)(N)[C@H](O)[C@H](C)O2)Oc2ccc(cc2Cl)[C@H]1O [vancomycin, vancomycin hydrochloride]
Doses that severely decreased cellular proliferation [1]: greater than 2 mg/mL
Vancomycin treated rats displaying radiographic signs of osteomyelitis ([2]; rat tibia inoculated with S. aureus Xen 36 (Log10 5.5 CFU/5 μL) with simultaneous single 25 mg/Kg intramedullary dose, 14 days, n = 9): zero
Micro CT evaluation of treated rats ([2]; rat tibia inoculated with S. aureus Xen 36, single 25 mg/Kg intramedullary dose, compared to untreated controls): absent of any signs of osteomyelitis
Elimination half-life [3]: approximately 6 hours
Therapeutic or supra-therapeutic bone concentrations of vancomycin ([4]; local delivery to the medullary canal): > 100 µg/mL
Time the infused drug stays in the bone ([4]; single 25 mg/Kg intramedullary dose): at least 96 hours
Mean vancomycin concentration in gastrocnemius muscle (ug drug/g tissue, AVE) ([4]; 4 h, HPLC): 167.793 µg/g
Mean vancomycin concentration in tibia (ug drug/g tissue, AVE) ([4]; 4 h, HPLC): 818.068 µg/g
Mean vancomycin concentration in gastrocnemius muscle (ug drug/g tissue, AVE) ([4]; 6 h, HPLC): 90.1696 µg/g
Mean vancomycin concentration in tibia (ug drug/g tissue, AVE) ([4]; 6 h, HPLC): 784.095 µg/g
Mean vancomycin concentration in gastrocnemius muscle (ug drug/g tissue, AVE) ([4]; 12 h, HPLC): 29.0616 µg/g
Mean vancomycin concentration in tibia (ug drug/g tissue, AVE) ([4]; 12 h, HPLC): 359.143 µg/g
Mean vancomycin concentration in gastrocnemius muscle (ug drug/g tissue, AVE) ([4]; 24 h, HPLC): 0 µg/g
Mean vancomycin concentration in gastrocnemius muscle (ug drug/g tissue, AVE) ([4]; 48 h, HPLC): 0.99 µg/g
Mean vancomycin concentration in tibia (ug drug/g tissue, AVE) ([4]; 48 h, HPLC): 515.375 µg/g
Mean vancomycin concentration in gastrocnemius muscle (ug drug/g tissue, AVE) ([4]; 72 h, HPLC): 0.6895 µg/g
Mean vancomycin concentration in tibia (ug drug/g tissue, AVE) ([4]; 72 h, HPLC): 130.325 µg/g
Mean vancomycin concentration in gastrocnemius muscle (ug drug/g tissue, AVE) ([4]; 96 h, HPLC): 1.205 µg/g
Mean vancomycin concentration in tibia (ug drug/g tissue, AVE) ([4]; 96 h, HPLC): 110.095 µg/g
Vancomycin in muscle, ug drug/g tissue [4, 5]: 0 ug drug/g tissue
Vancomycin in plasma [4, 5]: 2.855 µg/mL
Vancomycin in muscle, ug drug/g tissue ([4]; single 25 mg/Kg intramedullary dose, 4 h, HPLC, sample 1-2): 0 ug drug/g tissue
Vancomycin in muscle, ug drug/g tissue [4, 6]: 0 ug drug/g tissue
Vancomycin in plasma [4, 6]: 2.69 µg/mL
Vancomycin in muscle, ug drug/g tissue [4, 7]: 671.173 ug drug/g tissue
Vancomycin in plasma [4, 7]: 8.576 µg/mL
Vancomycin in muscle, ug drug/g tissue [4, 8]: 0 ug drug/g tissue
Vancomycin in plasma [4, 8]: 0.1311 µg/mL
Vancomycin in muscle, ug drug/g tissue [4, 9]: 359.037 ug drug/g tissue
Vancomycin in plasma [4, 9]: 3.7319 µg/mL
Vancomycin in muscle, ug drug/g tissue [4, 10]: 0 ug drug/g tissue
Vancomycin in plasma [4, 10]: -0.165 µg/mL
Vancomycin in muscle, ug drug/g tissue [4, 11]: 1.642 ug drug/g tissue
Vancomycin in plasma [4, 11]: 0.01263 µg/mL
Vancomycin in muscle, ug drug/g tissue [4, 12]: 0 ug drug/g tissue
Vancomycin in plasma [4, 12]: -0.165 µg/mL
Vancomycin in muscle, ug drug/g tissue [4, 13]: 114.004 ug drug/g tissue
Vancomycin in plasma [4, 13]: 0.9602 µg/mL
Vancomycin in muscle, ug drug/g tissue [4, 14]: 2.243 ug drug/g tissue
Vancomycin in plasma [4, 14]: 1.434 µg/mL
Vancomycin in muscle, ug drug/g tissue [4, 15]: 0 ug drug/g tissue
Vancomycin in plasma [4, 15]: 0.747 µg/mL
Vancomycin in muscle, ug drug/g tissue [4, 16]: 0 ug drug/g tissue
Vancomycin in plasma [4, 16]: 0.2258 µg/mL
Vancomycin in muscle, ug drug/g tissue [4, 17]: 0 ug drug/g tissue
Vancomycin in plasma [4, 17]: 0.9365 µg/mL
Vancomycin in muscle, ug drug/g tissue [4, 18]: 0 ug drug/g tissue
Vancomycin in plasma [4, 18]: 0.3917 µg/mL
Vancomycin in muscle, ug drug/g tissue [4, 19]: 0 ug drug/g tissue
Vancomycin in plasma [4, 19]: 0.6404 µg/mL
Vancomycin in muscle, ug drug/g tissue [4, 20]: 0 ug drug/g tissue
Vancomycin in plasma [4, 20]: 0.8299 µg/mL
Vancomycin in muscle, ug drug/g tissue [4, 21]: 0 ug drug/g tissue
Vancomycin in plasma [4, 21]: 0.7352 µg/mL
Vancomycin in muscle, ug drug/g tissue ([4]; single 25 mg/Kg intramedullary dose, 48 h, HPLC, sample 5-3): 0 ug drug/g tissue
Vancomycin in muscle, ug drug/g tissue [4, 22]: 3.96 ug drug/g tissue
Vancomycin in plasma [4, 22]: 0.593 µg/mL
Vancomycin in muscle, ug drug/g tissue ([4]; single 25 mg/Kg intramedullary dose, 72 h, HPLC, sample 6-1): 0 ug drug/g tissue
Vancomycin in muscle, ug drug/g tissue [4, 23]: 0 ug drug/g tissue
Vancomycin in plasma [4, 23]: -0.03475 µg/mL
Vancomycin in muscle, ug drug/g tissue [4, 24]: 2.758 ug drug/g tissue
Vancomycin in plasma [4, 24]: 0.04816 µg/mL
Vancomycin in muscle, ug drug/g tissue [4, 25]: 0 ug drug/g tissue
Vancomycin in plasma [4, 25]: 0.2495 µg/mL
Vancomycin in muscle, ug drug/g tissue [4, 26]: 0 ug drug/g tissue
Vancomycin in plasma [4, 26]: -0.165 µg/mL
Vancomycin in muscle, ug drug/g tissue [4, 27]: 0 ug drug/g tissue
Vancomycin in plasma [4, 27]: -0.165 µg/mL
Vancomycin in muscle, ug drug/g tissue [4, 28]: 4.819 ug drug/g tissue
Vancomycin in plasma [4, 28]: -0.165 µg/mL
Vancomycin in muscle, ug drug/g tissue [4, 29]: 0 ug drug/g tissue
Vancomycin in plasma [4, 29]: -0.165 µg/mL
Vancomycin concentration in the gastrocnemius muscle, first 4h post administration [4, 30]: > 100 µg/g
Vancomycin level in the gastrocnemius muscle by 24h [4, 30]: near undetectable levels
Vancomycin concentration detected in the tibia over the 96-h study period ([4]; single 25 mg/Kg intramedullary dose, HPLC of pulverized tissue): > 100 µg/g
Vancomycin detected in the blood plasma for the entirety of the study ([4]; single 25 mg/Kg intramedullary dose, HPLC, 96 h study): Little to no vancomycin was detected
Time a supratherapeutic antimicrobial dose (>100 μg/mL) was maintained in the surrounding muscle ([4]; single 25 mg/Kg intramedullary dose, n = 4 per time point): < 6 h

— paper PMC4966941 (PLoS ONE, 2016)
